Results taken from publication PMC4520593, “Virtual Screening of Peptide and Peptidomimetic Fragments Targeted to Inhibit Bacterial Dithiol Oxidase DsbA” (PLoS ONE, 2015).

How the values were obtained:
[1] = target: T1, Oxidized EcDsbA (Escherichia coli, UniProt P0AEG4); experiment: Isothermal titration calorimetry of compounds into EcDsbA; assay type: binding; conditions: 25°C
T1 construct: made in house
Protocol: Oxidized EcDsbA was diluted to 50 μM in 25 mM HEPES pH 7.4, 50 mM NaCl and 5% DMSO. Compounds were dissolved in 100% DMSO, and then diluted to a final concentration of 2 mM into 25 mM HEPES pH 7.4 50 mM NaCl with a final DMSO concentration of 5%. All experiments were performed using the MicroCal Auto-ITC200 instrument (GE Healthcare, USA), loading 200 μL of EcDsbA in the sample cell and 40 μL of compound in the syringe. Titrations were set up at 25°C with 19 injections of 2 μL separated by 180 seconds and a constant stirring speed of 1000 rpm. A preliminary injection of 0.5 μL was added to avoid slow leakage of titrant into the sample cell before the first 2 μL injection and the corresponding data point was excluded from analysis. Every compound was tested with three technical replicates. An additional titration of compound into buffer only (25 mM HEPES pH 7.4, 50 mM NaCl and 5% DMSO) was performed to measure the background heat of dilution. Analysis was performed with the MicroCal Origin software (version 7.0552).

[2] = target: PmDsbA; design: method as in PMID 24831013; conditions: ITC; cited from earlier work

T1 sequence (P0AEG4 20-208): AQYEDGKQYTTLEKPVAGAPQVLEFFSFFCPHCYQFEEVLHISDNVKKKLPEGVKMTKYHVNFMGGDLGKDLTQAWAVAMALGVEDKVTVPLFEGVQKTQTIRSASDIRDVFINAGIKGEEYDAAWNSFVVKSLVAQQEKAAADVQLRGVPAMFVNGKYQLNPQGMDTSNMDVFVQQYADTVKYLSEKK

| Compound | ITC binding to EcDsbA ([1]; 50 μM EcDsbA, 2 mM compound in syringe, 5% DMSO) | release of energy for the highest peak (ITC) ([1]; titration of EcDsbA) | Kd [2] | ΔH [2] | ΔS [2] |
| --- | --- | --- | --- | --- | --- |
| O=C(NCc1ccccc1)[C@H](Cc1c[nH]c2ccccc12)NC(=O)N1CCOCC1 [Compound 1, (S)-2-[N-(Morpholine-1-carbonyl)amino]-3-(1H-indol-3-yl)-N-(benzyl)propanamide] | little evidence of binding | -0.60 µcal/s |  |  |  |
| PWATCDS |  |  | 8.3 ± 0.4 µM | -13.7 ± 0.3 kcal/mol | -22.3±1.1 cal.mol^-1.deg^-1 |
